Experimental data as given in US20230339937A1, “CONDENSED RING COMPOUNDS THAT INHIBIT H-PGDS” (SATO PHARMACEUTICAL CO., LTD., priority 2020, published 2023).

Biological target: T1, Recombinant human H-PGDS (Homo sapiens, UniProt O60760)
T1 construct: made in house; host or cells: E. coli
Assay: H-PGDS inhibitory activity (prostaglandin D2 production from prostaglandin H2, measured by LC-MS/MS)
Type: biochemical
Details: recombinant human H-PGDS 1.0 nM expressed in E. coli; prostaglandin H2 25 μM; preincubated 15 minutes on ice, reacted on ice for 1 minute; concentration that inhibits prostaglandin D2 production by 50%
Outline: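 PGD2 formed from 25 µM prostaglandin H2 during a 1-min on-ice reaction was measured by LC-MS/MS after an FeCl2/citric acid stop. The enzyme was 1.0 nM E. coli-expressed human H-PGDS in Tris-HCl pH 8.0 buffer with MgCl2, reduced glutathione and γ-globulin, preincubated with compound for 15 min on ice. Production was normalised to DMSO controls minus the no-enzyme background.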

T1 sequence (O60760 whole entry): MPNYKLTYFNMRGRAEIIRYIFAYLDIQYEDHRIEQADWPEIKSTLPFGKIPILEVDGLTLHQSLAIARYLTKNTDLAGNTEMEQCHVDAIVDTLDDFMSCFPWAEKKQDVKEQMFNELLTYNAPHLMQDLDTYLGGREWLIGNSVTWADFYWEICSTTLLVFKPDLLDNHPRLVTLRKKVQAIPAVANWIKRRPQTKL

Row | SMILES | IC50
1 | COCCn1nc(C)c(CNC(=O)c2ccc(-c3nccc4[nH]ccc34)cc2)c1C [Example 45, N-{[1-(2-methoxyethyl)-3,5-dimethyl-1H-pyrazol-4-yl]methyl}-4-(1H-pyrrolo[3,2-c]pyridin-4-yl)benzamide] | 0.91 nM
2 | O=C(NC12CC3CC(CC(O)(C3)C1)C2)c1ccc(-c2nccc3occc23)cc1 [Example 271, 4-(furo[3,2-c]pyridin-4-yl)-N-(3-hydroxyadamantan-1-yl)benzamide] | 1.2 nM
3 | CCC(=O)N[C@H]1CC[C@H](NC(=O)c2ccc(-c3nccc4occc34)cc2)CC1 [Example 298, 4-(furo[3,2-c]pyridin-4-yl)-N-(trans-4-propionamidocyclohexyl)benzamide] | 3.4 nM
4 | O=C1CCC(NC(=O)c2ccc(-c3nccc4occc34)cc2)CC1 [Example 303, 4-(furo[3,2-c]pyridin-4-yl)-N-(4-oxocyclohexyl)benzamide] | 2.1 nM
5 | O=C(NCc1ccncc1)c1ccc(-c2nccc3sccc23)cc1 [Example 60, N-(pyridin-4-ylmethyl)-4-(thieno[3,2-c]pyridin-4-yl)benzamide] | 15 nM
6 | O=C(NC1CN(c2ccccn2)C1)c1ccc(-c2nccc3occc23)cc1 [Example 113, 4-(furo[3,2-c]pyridin-4-yl)-N-[1-(pyridin-2-yl)azetidin-3-yl]benzamide] | 2.5 nM
7 | O=C(N[C@H]1CC[C@H](N2CCCCC2=O)CC1)c1ccc(-c2nccc3occc23)cc1 [Example 300, 4-(furo[3,2-c]pyridin-4-yl)-N-[trans-4-(2-oxopiperidin-1-yl)cyclohexyl]benzamide] | 4.7 nM
8 | O=C(NCC1CCCO1)c1ccc(-c2nccc3[nH]ccc23)cc1 (stereo not shown) [Example 20, 4-(1H-pyrrolo[3,2-c]pyridin-4-yl)-N-[(tetrahydrofuran-2-yl)methyl] benzamide] | 0.83 nM
9 | CC(=O)NCCCCNC(=O)c1ccc(-c2nccc3[nH]ccc23)cc1 [Example 29, N-(4-acetamidobutyl)-4-(1H-pyrrolo[3,2-c]pyridin-4-yl)benzamide] | 0.46 nM
10 | O=C(NC1CCC2(CC1)COC2)c1ccc(-c2nccc3occc23)cc1 [Example 284, 4-(furo[3,2-c]pyridin-4-yl)-N-(2-oxaspiro[3.5]nonan-7-yl)benzamide] | 1.7 nM
11 | O=C(N[C@H]1CC[C@H](O)CC1)c1ccc(-c2nccc3[nH]ccc23)cc1 [Example 337, N-(trans-4-hydroxycyclohexyl)-4-(1H-pyrrolo[3,2-c]pyridin-4-yl)benzamide] | 0.44 nM
12 | O=C(NC1CCN(c2nccc(CO)n2)CC1)c1ccc(-c2nccc3occc23)cc1 [Example 187, 4-(furo[3,2-c]pyridin-4-yl)-N-{1-[4-(hydroxymethyl)pyrimidin-2-yl]piperidin-4-yl}benzamide] | 0.8 nM
13 | O=C(NCC1CCCCC1)c1ccc(-c2nccc3[nH]ccc23)cc1 [Example 19, N-(cyclohexyl-methyl)-4-(1H-pyrrolo[3,2-c]pyridin-4-yl)benzamide] | 1 nM
14 | Cn1nnnc1N1CCC(NC(=O)c2ccc(-c3nccc4occc34)cc2)CC1 [Example 99, 4-(furo[3,2-c]pyridin-4-yl)-N-[1-(1-methyl-1H-tetrazol-5-yl)piperidin-4-yl]benzamide] | 1.6 nM
15 | O=C(Nc1cc(-c2ccccc2)[nH]n1)c1ccc(-c2nccc3occc23)cc1 [Example 100, 4-(furo[3,2-c]pyridin-4-yl)-N-(5-phenyl-1H-pyrazol-3-yl)benzamide] | 19 nM
16 | O=C(NC1CCN(c2ncc(CO)cn2)CC1)c1ccc(-c2nccc3occc23)cc1 [Example 160, 4-(furo[3,2-c]pyridin-4-yl)-N-{1-[5-(hydroxymethyl)pyrimidin-2-yl]piperidin-4-yl}benzamide] | 2.1 nM
17 | N#Cc1ccc(CNC(=O)c2ccc(-c3nccc4occc34)cc2)cc1 [Example 74, N-(4-cyanobenzyl)-4-(furo[3,2-c]pyridin-4-yl)benzamide] | 6.3 nM
18 | Cc1cnc(-c2ccc(C(=O)N[C@H]3CC[C@H](C(C)(C)O)CC3)cc2)c2cc[nH]c12 [Example 339, N-[trans-4-(2-hydroxypropan-2-yl)cyclohexyl]-4-(7-methyl-1H-pyrrolo[3,2-c]pyridin-4-yl)benzamide] | 1.4 nM
19 | O=C(NC1CCN(c2ccnc(Cl)c2)CC1)c1ccc(-c2nccc3occc23)cc1 [Example 165, N-[1-(2-chloropyridin-4-yl)piperidin-4-yl]-4-(furo[3,2-c]pyridin-4-yl)benzamide] | 1.3 nM
20 | O=C(N[C@H]1CC[C@H](C2(O)CC2)CC1)c1ccc(-c2nccc3occc23)c(F)c1 [Example 327, 3-fluoro-4-(furo[3,2-c]pyridin-4-yl)-N-[trans-4-(1-hydroxycyclopropyl)cyclohexyl]benzamide] | 1.1 nM

Row | SMILES | IC50
21 | Cn1nccc1N1CCC(NC(=O)c2ccc(-c3nccc4occc34)cc2)CC1 [Example 250, 4-(furo[3,2-c]pyridin-4-yl)-N-[1-(1-methyl-1H-pyrazol-5-yl)piperidin-4-yl]benzamide] | 3.2 nM
22 | O=C(Nc1cc(C2CC2)[nH]n1)c1ccc(-c2nccc3occc23)cc1 [Example 104, N-(5-cyclopropyl-1H-pyrazol-3-yl)-4-(furo[3,2-c]pyridin-4-yl)benzamide] | 8 nM
23 | O=C(N[C@H]1CC[C@H](OCC2(O)CC2)CC1)c1ccc(-c2nccc3occc23)c(F)c1 [Example 347, 3-fluoro-4-(furo[3,2-c]pyridin-4-yl)-N-(trans-4-[(1-hydroxycyclopropyl)methoxy]cyclohexyl)benzamide] | 2 nM
24 | CC(C)(O)[C@H]1CC[C@H](NC(=O)c2ccc(-c3ncc(CO)c4occc34)cc2)CC1 [Example 135, 4-[7-(hydroxymethyl)furo[3,2-c]pyridin-4-yl]-N-[trans-4-(2-hydroxypropan-2-yl)cyclohexyl]benzamide] | 14 nM
25 | O=C(NC1CCN(c2ncccc2F)CC1)c1ccc(-c2nccc3occc23)cc1 [Example 144, N-[1-(3-fluoropyridin-2-yl)piperidin-4-yl]-4-(furo[3,2-c]pyridin-4-yl)benzamide] | 1.5 nM
26 | O=C(NC1CCN(c2nn[nH]n2)CC1)c1ccc(-c2nccc3occc23)cc1 [Example 248, N-[1-(1H-tetrazol-5-yl)piperidin-4-yl]-4-(furo[3,2-c]pyridin-4-yl)benzamide] | 4.4 nM
27 | Cc1cc2occc2c(-c2ccc(C(=O)N[C@H]3CCN(c4ncccn4)C3)cc2)n1 [Example 332, (S)-4-(6-methylfuro[3,2-c]pyridin-4-yl)-N-[1-(pyrimidin-2-yl)pyrrolidin-3-yl]benzamide] | 1.6 nM
28 | CC(C)(O)[C@H]1CC[C@H](NC(=O)c2ccc(-c3nccc4occc34)c(Cl)c2)CC1 [Example 131, 3-chloro-4-(furo[3,2-c]pyridin-4-yl)-N-[trans-4-(2-hydroxypropan-2-yl)cyclohexyl]benzamide] | 26 nM
29 | O=C(N[C@H]1CC[C@H](CO)CC1)c1ccc(-c2nccc3occc23)cc1 [Example 120, 4-(furo[3,2-c]pyridin-4-yl)-N-[trans-4-(hydroxymethyl)cyclohexyl]benzamide] | 3.3 nM
30 | CCC(O)[C@H]1CC[C@H](NC(=O)c2ccc(-c3nccc4occc34)cc2)CC1 (stereo partly drawn) [Example 308, 4-(furo[3,2-c]pyridin-4-yl)-N-[trans-4-(1-hydroxypropyl)cyclohexyl]benzamide] | 1.5 nM
31 | O=C(N[C@H]1CC[C@H](CO)CC1)c1ccc(-c2nccc3[nH]ccc23)cc1 [Example 3, N-[trans-4-(hydroxymethyl)cyclohexyl]-4-(1H-pyrrolo[3,2-c]pyridin-4-yl)benzamide] | 0.63 nM
32 | O=C(NCc1cccc(CO)c1)c1ccc(-c2nccc3occc23)cc1 [Example 66, 4-(furo[3,2-c]pyridin-4-yl)-N-[3-(hydroxymethyl)benzyl]benzamide] | 6.4 nM
33 | NC(=O)C12CCC(NC(=O)c3ccc(-c4nccc5occc45)cc3)(CC1)CC2 [Example 352, 4-[4-(furo[3,2-c]pyridin-4-yl)benzamide]bicyclo[2.2.2]octane-1-carboxamide] | 0.89 nM
34 | CCC(O)CNC(=O)c1ccc(-c2nccc3occc23)cc1 (stereo not shown) [Example 91, 4-(furo[3,2-c]pyridin-4-yl)-N-(2-hydroxybutyl) benzamide] | 32 nM
35 | CCc1cc2occc2c(-c2ccc(C(=O)N[C@H]3CC[C@H](C(C)(C)O)CC3)cc2)n1 [Example 314, 4-(6-ethylfuro[3,2-c]pyridin-4-yl)-N-[trans-4-(2-hydroxypropan-2-yl)cyclohexyl]benzamide] | 70 nM
36 | CC(C)N(CCNC(=O)c1ccc(-c2nccc3[nH]ccc23)cc1)C(C)C [Example 25, N-[2-(diisopropylamino)ethyl]-4-(1H-pyrrolo[3,2-c]pyridin-4-yl)benzamide] | 1.6 nM
37 | CC(C)(O)[C@H]1CC[C@H](NC(=O)c2ccc(-c3nc(N)cc4occc34)cc2)CC1 [Example 315, 4-(6-aminofuro[3,2-c]pyridin-4-yl)-N-[trans-4-(2-hydroxypropan-2-yl)cyclohexyl]benzamide] | 2.6 nM
38 | O=C(NC1CCN(c2cc(Cl)ncn2)CC1)c1ccc(-c2nccc3occc23)cc1 [Example 146, N-[1-(6-chloropyrimidin-4-yl)piperidin-4-yl]-4-(furo[3,2-c]pyridin-4-yl)benzamide] | 1 nM
39 | Cc1cnc(N2CCC(NC(=O)c3ccc(-c4nccc5occc45)cc3)CC2)nc1 [Example 156, 4-(furo[3,2-c]pyridin-4-yl)-N-[1-(5-methylpyrimidin-2-yl)piperidin-4-yl]benzamide] | 1.6 nM
40 | O=C(N[C@H]1CCN(c2ccc(CO)cn2)C1)c1ccc(-c2nccc3occc23)cc1 [Example 197, (S)-4-(furo[3,2-c]pyridin-4-yl)-N-{1-[5-(hydroxymethyl)pyridin-2-yl]pyrrolidin-3-yl}benzamide] | 6.1 nM
